{"source": "patent US20150374673A1", "about": "“Combination Therapy for the Treatment of Nosocomial Pneumonia” (priority 2013, published 2015)", "key": {"[1]": {"experiment": "Protein binding, equilibrium dialysis chamber, LC-MS/MS", "format": "in vitro ADME", "experimental": "Blood was separated from plasma using a cooled centrifuge. Samples were split and stored at −80° C."}, "P. aeruginosa [2]": {"tested_on": "P. aeruginosa", "experiment": "Neutropenic thigh infection model (CD-1 mice), exposure response of ceftazidime q2h and avibactam", "format": "in vivo, Pseudomonas aeruginosa", "details": "ceftazidime monotherapy q2h", "experimental": "CD-1 neutropenic mice were infected with appr. 10^6 cfu β-lactamase-producing P. aeruginosa strains in the thigh.\nOutbred female CD-1 mice (Charles River, Netherlands), 4 to 5 weeks old, weighing 20 to 25 g were used in the experiments. Granulocytopenia was induced by two doses of cyclophosphamide s.c.: one at four days (150 mg/kg) and the other at one day (100 mg/kg) before the infection experiment.\nThe neutropenic mice were infected with 2 P. aeruginosa strains per animal, one in the left and one in the right thigh. 0.05 mL of bacterial suspension consisting of approximately 10^5-10^6 bacteria was inoculated intramuscularly. […] All dosing regimens were performed in at least two animals. At t=0 h, 2 mice were humanely sacrificed to determine the initial inoculum just before treatment. All other animals were sacrificed at t=24 h unless the welfare of the animals indicated earlier termination was necessary, following animal welfare regulations. Thighs were taken and moved to a pre-cooled 10-mL plastic tube (Transport Tube, Omnilabo, NL) ? containing 2 mL phosphate buffered saline (PBS; NaCl 8.00 g/L, Na2HPO42H2 1.44 g/L, KH2PO4 0.26 g/L, pH 7.2-7.4). Subsequently thighs were ground using an Ultra-Turrax (IKA Labortechnik, Germany). A tenfold dilution series was prepared and 3×10 μL plated (Chromagar, Biomerieux, NL) per dilution. The following day, colonies were counted and the number of cfu per thigh calculated. The drug effect was then determined as the difference between the log10[cfu/thigh] values at t=24 h and t=0 h (mean value of 2 mice) expressed as “dcfu”.\nThe amount of avibactam administered varied in frequency and dose. […] The drug effect was determined as the difference between the log10 [cfu/thigh] values at t=24 h and t=0 h (mean value of 2 mice) expressed as dcfu. Free drug concentrations were used in all calculations. […] Oral presentation at the ? 52nd Interscience Conference on Antimicrobial Agents and Chemotherapy, San Francisco, Calif. Abstract #A-1760)."}, "S. aureus": {"tested_on": "S. aureus", "experiment": "MIC, CLSI broth microdilution in CAMHB with 0-10% pulmonary surfactant (avibactam fixed at 4 μg/mL in combination)", "format": "cell-based, Staphylococcus aureus", "experimental": "(§1) The bacterial strains used in this testing were part of the microbiological culture collection housed at AstraZeneca R&D Boston (AstraZeneca Research Collection, designated ARC). The panel of bacterial isolates used for this testing was comprised of five CLSI QC reference strains and the remainder were either recent clinical isolates expressing β-lactamases or isolates from the primary bacterial screening panels.\n(§2) MIC values were determined using the CLSI broth microdilution methodology with slight variation. Stock compound mother plates were prepared and used to spot 2 μL aliquots of serial 2-fold drug dilutions to columns 1-11 of 96-well daughter plates using a Perkin-Elmer MiniTrak™ MultiPosition dispenser. […] An inoculum volume of 100 μL (5×10E^5 CFU/mL) in CAMHB containing 0, 1, 2.5, 5, or 10% pulmonary surfactant was added using a multichannel Finnpipette® to each well of the 96-well plate.\n(§3) The minimum inhibitory concentration (MIC) values against each organism/drug combination were determined using broth microdilution methodology according to CLSI guidelines. The recommended reference bacterial strains for each test group and reference compounds were incorporated into each test. For Gram-negatives, the reference bacterial strains were Escherichia coli ATCC 25922, E. coli ATCC 35218, Klebsiella pneumoniae ATCC 700603, and Pseudomonas aeruginosa ATCC 27853. Staphylococcus aureus ATCC 29213 was the reference bacterial strain for the Gram-positives.\n(§4) MIC values for individual isolates were read visually. The MICs for each compound or combination in pulmonary surfactant was compared to the compound or combination tested in CAMHB alone."}, "P. aeruginosa [3]": {"tested_on": "P. aeruginosa", "experiment": "MIC, CLSI broth microdilution in CAMHB with 0-10% pulmonary surfactant (avibactam fixed at 4 μg/mL in combination)", "format": "cell-based, Pseudomonas aeruginosa", "details": "Pseudomonas aeruginosa, read-out: MIC", "experimental": "as §1, §2, §3, §4"}, "[4]": {"tested_on": "Gram-positive or Gram-negative bacterial strains", "experiment": "MIC in pulmonary surfactant compared with CAMHB alone, whole strain panel", "format": "cell-based", "details": "up to 10% pulmonary surfactant vs CAMHB alone; any strain tested", "experimental": "as §1, §2\nThe minimum inhibitory concentration (MIC) values against each organism/drug combination were determined using broth microdilution methodology according to CLSI guidelines. The recommended reference bacterial strains for each test group and reference compounds were incorporated into each test. […]\nMIC values for individual isolates were read visually. […]"}}, "note": "Where two headings read alike, the source gives them in different places.", "data": [{"smiles": "CC(C)(O/N=C(\\C(=O)N[C@@H]1C(=O)N2C(C(=O)[O-])=C(C[n+]3ccccc3)CS[C@H]12)c1csc(N)n1)C(=O)O", "note": "[ceftazidime, (6R,7R)-7-[[(2Z)-2-(2-amino-1,3-thiazol-4-yl)-2-(1-hydroxy-2-methyl-1-oxopropan-2-yl)oxyiminoacetyl]amino]-8-oxo-3-(pyridin-1-ium-1-ylmethyl)-5-thia-1-azabicyclo[4.2.0]oct-2-ene-2-carboxylate pentahydrate]", "values": [{"measurement": "fraction unbound", "setting": "[1]", "value": 0.9}, {"measurement": "static % fT > MIC (CAZ)", "setting": "P. aeruginosa [2]; isolate no. 1", "value": "no effect"}, {"measurement": "static % fT > MIC (CAZ)", "setting": "P. aeruginosa [2]; isolate no. 3", "value": 0, "unit": "%"}, {"measurement": "static % fT > MIC (CAZ)", "setting": "P. aeruginosa [2]; isolate no. 5", "value": 3, "unit": "%"}, {"measurement": "static % fT > MIC (CAZ)", "setting": "P. aeruginosa [2]; isolate no. 7", "value": 7.2, "unit": "%"}, {"measurement": "static % fT > MIC (CAZ)", "setting": "P. aeruginosa [2]; isolate no. 11", "value": "no effect"}, {"measurement": "static % fT > MIC (CAZ)", "setting": "P. aeruginosa [2]; isolate no. 18", "value": 9, "unit": "%"}, {"measurement": "static % fT > MIC (CAZ)", "setting": "P. aeruginosa [2]; isolate no. 19", "value": 38, "unit": "%"}, {"measurement": "MIC", "setting": "S. aureus; S. aureus ARC12 (CLSI QC strain, ATCC 29213), surfactant 0%", "value": 8, "unit": "µg/mL"}, {"measurement": "MIC", "setting": "S. aureus; S. aureus ARC12 (CLSI QC strain, ATCC 29213), surfactant 1%", "value": 16, "unit": "µg/mL"}, {"measurement": "MIC", "setting": "S. aureus; S. aureus ARC12 (CLSI QC strain, ATCC 29213), surfactant 2.5%", "value": 16, "unit": "µg/mL"}, {"measurement": "MIC", "setting": "S. aureus; S. aureus ARC12 (CLSI QC strain, ATCC 29213), surfactant 5%", "value": 8, "unit": "µg/mL"}, {"measurement": "MIC", "setting": "S. aureus; S. aureus ARC12 (CLSI QC strain, ATCC 29213), surfactant 10%", "value": 8, "unit": "µg/mL"}, {"measurement": "MIC", "setting": "S. aureus; S. aureus ARC516 (MRSA, quinolone-resistant), surfactant 0%", "value": ">64", "unit": "µg/mL"}, {"measurement": "MIC", "setting": "S. aureus; S. aureus ARC516 (MRSA, quinolone-resistant), surfactant 1%", "value": ">64", "unit": "µg/mL"}, {"measurement": "MIC", "setting": "S. aureus; S. aureus ARC516 (MRSA, quinolone-resistant), surfactant 2.5%", "value": ">64", "unit": "µg/mL"}, {"measurement": "MIC", "setting": "S. aureus; S. aureus ARC516 (MRSA, quinolone-resistant), surfactant 5%", "value": ">64", "unit": "µg/mL"}, {"measurement": "MIC", "setting": "S. aureus; S. aureus ARC516 (MRSA, quinolone-resistant), surfactant 10%", "value": ">64", "unit": "µg/mL"}, {"measurement": "MIC", "setting": "P. aeruginosa [3]; ATCC27853, P. aeruginosa ARC3 (CLSI QC strain, ATCC 27853), surfactant 1%", "value": 1, "unit": "µg/mL"}, {"measurement": "MIC", "setting": "P. aeruginosa [3]; ATCC27853, P. aeruginosa ARC3 (CLSI QC strain, ATCC 27853), surfactant 2.5%", "value": 2, "unit": "µg/mL"}, {"measurement": "MIC", "setting": "P. aeruginosa [3]; ATCC27853, P. aeruginosa ARC3 (CLSI QC strain, ATCC 27853), surfactant 5%", "value": 1, "unit": "µg/mL"}, {"measurement": "MIC", "setting": "P. aeruginosa [3]; ATCC27853, P. aeruginosa ARC3 (CLSI QC strain, ATCC 27853), surfactant 10%", "value": 2, "unit": "µg/mL"}, {"measurement": "MIC", "setting": "P. aeruginosa [3]; ATCC27853, P. aeruginosa ARC3 (CLSI QC strain, ATCC 27853), surfactant 0%", "value": 1, "unit": "µg/mL"}, {"measurement": "MIC", "setting": "P. aeruginosa [3]; P. aeruginosa ARC2532 (Clinical isolate), surfactant 0%", "value": 2, "unit": "µg/mL"}, {"measurement": "MIC", "setting": "P. aeruginosa [3]; P. aeruginosa ARC2532 (Clinical isolate), surfactant 1%", "value": 2, "unit": "µg/mL"}, {"measurement": "MIC", "setting": "P. aeruginosa [3]; P. aeruginosa ARC2532 (Clinical isolate), surfactant 2.5%", "value": 2, "unit": "µg/mL"}, {"measurement": "MIC", "setting": "P. aeruginosa [3]; P. aeruginosa ARC2532 (Clinical isolate), surfactant 5%", "value": 2, "unit": "µg/mL"}, {"measurement": "MIC", "setting": "P. aeruginosa [3]; P. aeruginosa ARC2532 (Clinical isolate), surfactant 10%", "value": 2, "unit": "µg/mL"}, {"measurement": "MIC", "setting": "P. aeruginosa [3]; P. aeruginosa ARC2761 (Clinical isolate), surfactant 1%", "value": 2, "unit": "µg/mL"}, {"measurement": "MIC", "setting": "P. aeruginosa [3]; P. aeruginosa ARC2761 (Clinical isolate), surfactant 2.5%", "value": 1, "unit": "µg/mL"}, {"measurement": "MIC", "setting": "P. aeruginosa [3]; P. aeruginosa ARC2761 (Clinical isolate), surfactant 5%", "value": 2, "unit": "µg/mL"}, {"measurement": "MIC", "setting": "P. aeruginosa [3]; P. aeruginosa ARC2761 (Clinical isolate), surfactant 10%", "value": 2, "unit": "µg/mL"}, {"measurement": "MIC", "setting": "P. aeruginosa [3]; P. aeruginosa ARC3508 (derepressed AmpC), surfactant 0%", "value": 32, "unit": "µg/mL"}, {"measurement": "MIC", "setting": "P. aeruginosa [3]; P. aeruginosa ARC3508 (derepressed AmpC), surfactant 1%", "value": 32, "unit": "µg/mL"}, {"measurement": "MIC", "setting": "P. aeruginosa [3]; P. aeruginosa ARC3508 (derepressed AmpC), surfactant 2.5%", "value": 32, "unit": "µg/mL"}, {"measurement": "MIC", "setting": "P. aeruginosa [3]; P. aeruginosa ARC3508 (derepressed AmpC), surfactant 5%", "value": 32, "unit": "µg/mL"}, {"measurement": "MIC", "setting": "P. aeruginosa [3]; P. aeruginosa ARC3508 (derepressed AmpC), surfactant 10%", "value": 32, "unit": "µg/mL"}, {"measurement": "MIC", "setting": "P. aeruginosa [3]; PAO1, P. aeruginosa ARC545 (PAO1), surfactant 0%", "value": 1, "unit": "µg/mL"}, {"measurement": "MIC", "setting": "P. aeruginosa [3]; PAO1, P. aeruginosa ARC545 (PAO1), surfactant 1%", "value": 1, "unit": "µg/mL"}, {"measurement": "MIC", "setting": "P. aeruginosa [3]; PAO1, P. aeruginosa ARC545 (PAO1), surfactant 2.5%", "value": 1, "unit": "µg/mL"}, {"measurement": "MIC", "setting": "P. aeruginosa [3]; PAO1, P. aeruginosa ARC545 (PAO1), surfactant 5%", "value": 1, "unit": "µg/mL"}, {"measurement": "MIC", "setting": "P. aeruginosa [3]; PAO1, P. aeruginosa ARC545 (PAO1), surfactant 10%", "value": 1, "unit": "µg/mL"}, {"measurement": "MIC", "setting": "P. aeruginosa [3]; P. aeruginosa ARC2761 (Clinical isolate), surfactant 0%", "value": 2, "unit": "µg/mL"}, {"measurement": "MIC increase in pulmonary surfactant", "setting": "[4]", "value": "no MIC increases were observed"}]}]}
